Experimental data as given in US20070117743A1, “New antitumoral compounds” (priority 2003, published 2007).
Where a SMILES comes first, the peptide text is derived from it. Bridges are numbered along the chain shown (N, C = ends). [ ]: non-standard residue; d: D form. The star is where a group is joined. d(aIle) = CC[C@H](C)[C@@H](N)C(=O)O; d(aThr) = C[C@@H](O)[C@@H](N)C(=O)O; Hexanoyl(5-Me) = CC(C)CCCC(=O)*; Orn = NCCC[C@H](N)C(=O)O; Dhb = C/C=C(\N)C(=O)O

How the values were obtained:
Assay type in all cases: cell-based, human
A-549 = assay: SRB colorimetric assay of cell growth and viability, A-549; conditions: 48 hours exposure; for GI50: read-out: GI50 A-549; for CC50: read-out: LC50 A-549
SK-MEL-28 = assay: SRB colorimetric assay of cell growth and viability, SK-MEL-28; conditions: 48 hours exposure; for CC50: read-out: LC50 MEL-28
HT-29 = assay: SRB colorimetric assay of cell growth and viability, HT-29; conditions: 48 hours exposure; for GI50: read-out: GI50 HT-29; for CC50: read-out: LC50 HT-29
LoVo = assay: SRB colorimetric assay of cell growth and viability, LoVo; conditions: 48 hours exposure; for CC50: read-out: LC50 LOVO
LoVo-Dox = assay: SRB colorimetric assay of cell growth and viability, LoVo-Dox; conditions: 48 hours exposure; for CC50: read-out: LC50 LOVO-DOX
Procedure, shortened: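 First, 5×10^3 cells per well attach for 18 hours in RPMI 1640 with 10% FBS at 37° C and 5% CO2. Next, samples spanning 10 to 10^−8 μg/mL are added for 48 hours. Finally, cells are fixed with TCA, stained with SRB for 10 minutes and read at 490 nm.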

DU-145 = assay: SRB colorimetric assay of cell growth and viability, DU-145; conditions: 48 hours exposure
IGROV-1 = assay: SRB colorimetric assay of cell growth and viability, IGROV-1; conditions: 48 hours exposure
IGROV-ET = assay: SRB colorimetric assay of cell growth and viability, IGROV-ET; conditions: 48 hours exposure; for CC50: read-out: LC50 IGROV-ET
HeLa = assay: SRB colorimetric assay of cell growth and viability, HeLa; conditions: 48 hours exposure; for CC50: read-out: LC50 HELA
HeLa-APL = assay: SRB colorimetric assay of cell growth and viability, HeLa-APL; conditions: 48 hours exposure; for CC50: read-out: LC50 HELA-APL
K-562 = assay: SRB colorimetric assay of cell growth and viability, K-562; conditions: 48 hours exposure; for CC50: read-out: LC50 K-562
PANC-1 = assay: SRB colorimetric assay of cell growth and viability, PANC-1; conditions: 48 hours exposure; for CC50: read-out: LC50 PANC-1

Structure (SMILES)	TGI A-549 (A-549) [Molar]	GI50 (A-549) [µM]	CC50 (A-549) [µM]	GI50 (SK-MEL-28) [µM]	TGI MEL-28 (SK-MEL-28) [Molar]	CC50 (SK-MEL-28) [µM]	TGI HT-29 (HT-29) [Molar]	GI50 (HT-29) [µM]	CC50 (HT-29) [µM]	GI50 (LoVo) [µM]	TGI LOVO (LoVo) [Molar]	CC50 (LoVo) [µM]	GI50 (LoVo-Dox) [µM]	TGI LOVO-DOX (LoVo-Dox) [Molar]	CC50 (LoVo-Dox) [µM]	GI50 (DU-145) [µM]	LC50 (concentration causing 50% net cell kill) (DU-145) [µM]	TGI DU-145 (DU-145) [Molar]	GI50 (IGROV-1) [µM]	LC50 (concentration causing 50% net cell killing) (IGROV-1) [µM]	further results
C/C=C1\NC(=O)[C@H](Cc2ccccc2)NC(=O)[C@@H](C(C)C)NC(=O)[C@@H]([C@@H](C)CC)NC(=O)[C@H](NC(=O)[C@H](NC(=O)[C@H](CCCN)NC(=O)[C@H]2CCCN2C(=O)[C@H](NC(=O)[C@@H](NC(=O)[C@H](C)NC(=O)CCCC(C)C)C(C)C)C(C)C)[C@@H](C)CC)[C@@H](C)OC(=O)[C@H](C(C)C)NC1=O [Compound 52, [Ala^12, noD-Val^13]-KF] ({Hexanoyl(5-Me)}-AV[dV][dP][Orn][d(aIle)][d(aThr)][d(aIle)][dV]F[Dhb]V; ester 7-C)	7.41E−06	7.41	7.41	7.41	7.41E−06	7.41	7.41E−06	7.41	7.41	7.41	7.41E−06	7.41	7.41	7.41E−06	7.41	7.41	7.41	7.41E−06	7.41	7.41	TGI IGROV (IGROV-1): 7.41E−06 Molar; GI50 (IGROV-ET): 3.67 µM; TGI IGROV-ET (IGROV-ET): 7.41E−06 Molar; CC50 (IGROV-ET): 7.41 µM; GI50 (HeLa): 6.18 µM; TGI HELA (HeLa): 7.41E−06 Molar; CC50 (HeLa): 7.41 µM; GI50 (HeLa-APL): 0.0179 µM; TGI HELA-APL (HeLa-APL): 7.41E−06 Molar; CC50 (HeLa-APL): 7.41 µM; GI50 (K-562): 7.41 µM; TGI K-562 (K-562): 7.41E−06 Molar; CC50 (K-562): 7.41 µM; GI50 (PANC-1): 6.64 µM; TGI PANC-1 (PANC-1): 7.41E−06 Molar; CC50 (PANC-1): 7.41 µM
C/C=C1\NC(=O)[C@H](Cc2ccccc2)NC(=O)[C@@H](C(C)C)NC(=O)[C@@H]([C@@H](C)CC)NC(=O)[C@H](NC(=O)[C@H](NC(=O)[C@H](CCCN)NC(=O)[C@H]2CCCN2C(=O)[C@H](NC(=O)[C@@H](NC(=O)CNC(=O)CCCC(C)C)C(C)C)C(C)C)[C@@H](C)CC)[C@@H](C)OC(=O)[C@H](C(C)C)NC1=O [Compound 53, [Gly^12, noD-Val^13]-KF] ({Hexanoyl(5-Me)}-GV[dV][dP][Orn][d(aIle)][d(aThr)][d(aIle)][dV]F[Dhb]V; ester 7-C)	7.49E−06	7.49	7.49	7.49	7.49E−06	7.49	7.49E−06	7.49	7.49	5.29	7.49E−06	7.49	7.49	7.49E−06	7.49	7.49	7.49	7.49E−06	7.49	7.49	TGI IGROV (IGROV-1): 7.49E−06 Molar; GI50 (IGROV-ET): 3.31 µM; TGI IGROV-ET (IGROV-ET): 7.49E−06 Molar; CC50 (IGROV-ET): 7.49 µM; GI50 (HeLa): 7.49 µM; TGI HELA (HeLa): 7.49E−06 Molar; CC50 (HeLa): 7.49 µM; GI50 (HeLa-APL): 7.49 µM; TGI HELA-APL (HeLa-APL): 7.49E−06 Molar; CC50 (HeLa-APL): 7.49 µM; GI50 (K-562): 7.49 µM; TGI K-562 (K-562): 7.49E−06 Molar; CC50 (K-562): 7.49 µM; GI50 (PANC-1): 4.17 µM; TGI PANC-1 (PANC-1): 7.49E−06 Molar; CC50 (PANC-1): 7.49 µM
C/C=C1\NC(=O)[C@H](Cc2ccccc2)NC(=O)[C@@H](C(C)C)NC(=O)[C@@H]([C@@H](C)CC)NC(=O)[C@H](NC(=O)[C@H](NC(=O)[C@H](CCCN)NC(=O)[C@H]2CCCN2C(=O)[C@H](NC(=O)[C@@H](NC(=O)[C@H](CC(C)C)NC(=O)CCCC(C)C)C(C)C)C(C)C)[C@@H](C)CC)[C@@H](C)OC(=O)[C@H](C(C)C)NC1=O [Compound 54, [Leu^12, noD-Val^13]-KF] ({Hexanoyl(5-Me)}-LV[dV][dP][Orn][d(aIle)][d(aThr)][d(aIle)][dV]F[Dhb]V; ester 7-C)	2.19E−06	1.14	4.23	1.24	2.20E−06	3.9	3.51E−06	1.88	6.55	1.08	2.14E−06	4.21	1.55	2.88E−06	5.37	1.49	4.61	2.62E−06	1.11	3.92	TGI IGROV (IGROV-1): 2.09E−06 Molar; GI50 (IGROV-ET): 1.45 µM; TGI IGROV-ET (IGROV-ET): 2.57E−06 Molar; CC50 (IGROV-ET): 4.57 µM; GI50 (HeLa): 0.841 µM; TGI HELA (HeLa): 1.73E−06 Molar; CC50 (HeLa): 3.54 µM; GI50 (HeLa-APL): 1.08 µM; TGI HELA-APL (HeLa-APL): 2.04E−06 Molar; CC50 (HeLa-APL): 3.88 µM; GI50 (K-562): 1.31 µM; TGI K-562 (K-562): 2.40E−06 Molar; CC50 (K-562): 4.41 µM; GI50 (PANC-1): 0.863 µM; TGI PANC-1 (PANC-1): 2.01E−06 Molar; CC50 (PANC-1): 4.68 µM
C/C=C1\NC(=O)[C@H](Cc2ccccc2)NC(=O)[C@@H](C(C)C)NC(=O)[C@@H]([C@@H](C)CC)NC(=O)[C@H](NC(=O)[C@H](NC(=O)[C@H](CCCN)NC(=O)[C@H]2CCCN2C(=O)[C@H](NC(=O)[C@@H](NC(=O)[C@@H]2CCCN2C(=O)CCCC(C)C)C(C)C)C(C)C)[C@@H](C)CC)[C@@H](C)OC(=O)[C@H](C(C)C)NC1=O [Compound 55, [Pro^12, noD-Val^13]-KF] ({Hexanoyl(5-Me)}-PV[dV][dP][Orn][d(aIle)][d(aThr)][d(aIle)][dV]F[Dhb]V; ester 7-C)	7.27E−06	7.27	7.27	7.27	7.27E−06	7.27	7.27E−06	7.27	7.27	7.27	7.27E−06	7.27	7.27	7.27E−06	7.27	7.27	7.27	7.27E−06	7.27	7.27	TGI IGROV (IGROV-1): 7.27E−06 Molar; GI50 (IGROV-ET): 7.27 µM; TGI IGROV-ET (IGROV-ET): 7.27E−06 Molar; CC50 (IGROV-ET): 7.27 µM; GI50 (HeLa): 7.27 µM; TGI HELA (HeLa): 7.27E−06 Molar; CC50 (HeLa): 7.27 µM; GI50 (HeLa-APL): 7.27 µM; TGI HELA-APL (HeLa-APL): 7.27E−06 Molar; CC50 (HeLa-APL): 7.27 µM; GI50 (K-562): 7.27 µM; TGI K-562 (K-562): 7.27E−06 Molar; CC50 (K-562): 7.27 µM; GI50 (PANC-1): 7.27 µM; TGI PANC-1 (PANC-1): 7.27E−06 Molar; CC50 (PANC-1): 7.27 µM
